Columns and labels:
5-HT1A = target: T1, 5-HT1A (Rattus norvegicus, UniProt P19327); test: inhibition of tritiated ligand ([3H]8-OH-DPAT) binding to 5-HT1A receptors, rat hippocampal tissue; parameters: species or system male Charles River CD rats; conditions: for Ki: 25° C., 30 minutes, pH 7.7; for inhibition at 1 µM: at 10^-6 M, read-out: % displacement of specific binding, 5-HT1A
T1 construct: Hippocampal tissue from the brains of male Charles River CD rats; from tissue; host or cells: rat hippocampus (male Charles River CD rats), crude membrane pellet
T1 sequence (P19327 1-422): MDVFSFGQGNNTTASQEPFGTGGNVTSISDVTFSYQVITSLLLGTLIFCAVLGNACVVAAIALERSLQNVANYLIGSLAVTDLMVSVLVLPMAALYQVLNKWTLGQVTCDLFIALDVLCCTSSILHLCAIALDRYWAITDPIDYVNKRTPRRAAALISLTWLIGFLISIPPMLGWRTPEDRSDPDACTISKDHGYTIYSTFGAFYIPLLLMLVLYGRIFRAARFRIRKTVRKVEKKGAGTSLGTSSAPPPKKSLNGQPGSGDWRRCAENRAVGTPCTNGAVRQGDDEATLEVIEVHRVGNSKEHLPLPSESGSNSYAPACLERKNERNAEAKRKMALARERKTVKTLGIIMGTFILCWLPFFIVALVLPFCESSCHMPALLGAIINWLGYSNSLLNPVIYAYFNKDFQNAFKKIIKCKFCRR
Description: Hippocampal tissue from the brains of male Charles River CD rats weighing between 150-250 g were homogenised in ice-cold 50 mM Tris-HCl buffer (pH 7.7) when measured at 25° C., 1:40 w/v) and centrifuged at 30,000 g at 4° C. for 10 minutes. The pellet was rehomogenised in the same buffer, incubated at 37° C. for 10 minutes and centrifuged at 30,000 g at 4° C. for 10 minutes. The final pellet was resuspended in 50 mM Tris-HCl buffer (pH 7.7) containing 4 mM CaCl2, 0.1% L-ascorbic acid and 10 μM pargyline hydrochloride (equivalent to 6.25 mg wet weight of tissue/ml) and used immediately in the binding assay. Aliquots (400 μl; equivalent to 2.5 mg wet weight of tissue/tube) of this suspension were added to tubes containing the ligand (50 μl; 2 nM) and distilled water (50 μl; total binding) or 5-HT (50 μl; 10 μM; non-specific binding) or test compound (50 μl; at a single concentration of 10^-6 M or at 10 concentrations ranging from 10^-11 -10^-3 M). The ligand was [^3 H]8-hydroxy-2-(dipropylamino)tetralin ([^3 H]8-OH-DPAT) and the mixture was incubated at 25° C. for 30 minutes before the incubation was terminated by rapid filtration.
The filters were washed with ice-cold Tris-HCl buffer and dried. The filters were punched out into vials, scintillation fluid added and radioactivity determined by liquid scintillation counting. The percentage displacement of specific binding of the tritiated ligand was calculated for the single concentration (10^-6 M) of test compound. Displacement curves were then produced for those compounds which displaced ≥50% of specific binding of the tritiated ligand at 10^-6 M using a range of concentrations of the compound. The concentration which gave 50% inhibition of specific binding (IC50) was obtained from the curve. The inhibition coefficient Ki was then calculated using the formula [formula] in which [ligand] is the concentration of the tritiated ligand used and KD Is the equilibrium dissociation constant for the ligand.

[1] = target: T2, D2-like dopamine receptors (Rattus norvegicus, UniProt P61169); test: inhibition of tritiated (S)-sulpiride binding to D2-like dopamine receptors, rat striatal tissue; parameters: species or system male Charles River CD rats; conditions: for Ki: 4° C., 40 minutes, pH 7.7
T2 construct: Striatal tissue from the brains of male Charles River CD rats; from tissue; host or cells: rat striatum (male Charles River CD rats), crude membrane pellet
T2 sequence (P61169 whole entry): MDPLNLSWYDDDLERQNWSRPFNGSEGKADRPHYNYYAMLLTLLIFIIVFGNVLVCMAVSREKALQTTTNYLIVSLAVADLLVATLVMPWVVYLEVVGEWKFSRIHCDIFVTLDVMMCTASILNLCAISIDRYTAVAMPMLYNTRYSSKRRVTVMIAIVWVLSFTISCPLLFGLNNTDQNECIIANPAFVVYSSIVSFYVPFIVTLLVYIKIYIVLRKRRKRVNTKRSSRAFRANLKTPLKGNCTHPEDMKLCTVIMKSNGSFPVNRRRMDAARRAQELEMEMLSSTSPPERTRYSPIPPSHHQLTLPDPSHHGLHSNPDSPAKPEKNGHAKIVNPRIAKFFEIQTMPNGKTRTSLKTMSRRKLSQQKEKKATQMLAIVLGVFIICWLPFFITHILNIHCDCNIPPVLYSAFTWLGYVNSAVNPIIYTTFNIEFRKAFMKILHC
Description: Striatal tissue from the brains of male Charles River CD rats weighing between 140-250 g were homogenised in ice-cold 50 mM Tris-HCl buffer (pH 7.7 when measured at 25° C.) and centrifuged at 40,000 g for 10 minutes. The pellet was resuspended in Tris salts buffer (50 mM Tris-HCl buffer containing 120 mM NaCl, 5 mM KCl, 2 mM CaCl2 and 1 mM MgCl2 with the addition of 6 mM ascorbic acid; pH 7.7 when measured at 25° C.), and again centrifuged at 40,000 g for 10 minutes. The final pellet was stored at -80° C. Before each test the pellet was resuspended in Tris salts buffer (equivalent to 2 mg wet weight of tissue/ml). Aliquots (720 μl; equivalent to 1.44 mg wet weight of tissue/tube) of this suspension were then added to tubes containing the ligand (40 μl; 1 nM) and Tris salts buffer (40 μl; total binding) or spiroperidol (40 μl; 10 nM; non-specific binding) or test compound (40 μl; at a single concentration of 10^-6 M or at 6 concentrations ranging from 10^-11 -10^-4 M). The ligand was tritiated (S)-sulpiride and the mixture was incubated at 4° C. for 40 minutes before the incubation was terminated by rapid filtration.
The filters were washed with ice-cold Tris-HCl buffer and dried. The filters were punched out in to vials, scintillation fluid added and were left for about 20 hours before being counted by scintillation spectrophotometry. The percentage displacement of specific binding of the tritiated ligand was calculated for the single concentration (10^-6 M) of test compound. Displacement curves were then produced over a range of concentrations for those compounds which displaced ≥50% of specific binding of the tritiated ligand at 10^-6 M. The concentration which gave a 50% inhibition of specific binding (IC50) was obtained from the curve. The inhibition coefficient Ki was then calculated using the formula [formula] in which [ligand] is the concentration of the tritiated ligand used and KD is the equilibrium dissociation constant for the ligand.

Compound	Ki (5-HT1A) [nM]	Ki [1] [nM]	inhibition at 1 µM (5-HT1A) [%]	inhibition at 1 µM ([1]; at 10^-6 M, read-out: % displacement of specific binding, D2-like) [%]
O=S(=O)(NCC1CCN(C[C@H]2COc3ccc(Cl)cc3O2)CC1)c1ccc(F)cc1F [Example 7, (S)-(-)-N-{[1-(7-chloro-1,4-benzodioxan-2-ylmethyl)-4-piperidyl]methyl}-2,4-difluorobenzenesulphonamide]	35	37.8	–	–
O=S(=O)(NCC1CCN(C[C@H]2COc3ccc(Cl)cc3O2)CC1)c1cccnc1 [Example 3, (S)-(-)-N-{[1-(7-chloro-1,4-benzodioxan-2-ylmethyl)-4-piperidyl]methyl}pyridine-3-sulphonamide 0.8 hydrate]	31.6	28	–	–
O=[N+]([O-])c1cccc(S(=O)(=O)NCC2CCN(C[C@H]3COc4ccc(Cl)cc4O3)CC2)c1 [Example 25, (S)-N-{[1-(7-Chloro-1,4-benzodioxan-2-ylmethyl)-4-piperidyl]methyl}-3-nitrobenzenesulphonamide]	–	119	91	–
O=S(=O)(NCC1CCN(C[C@H]2COc3ccc(Cl)cc3O2)CC1)c1ccc(F)cc1 [Example 5, (S)-(-)-N-{[1-(7-chloro-1,4-benzodioxan-2-ylmethyl)-4-piperidyl]methyl}-4-fluorobenzene-sulphonamide]	37	69.8	–	–
O=S(=O)(NCC1CCN(C[C@H]2COc3ccc(Cl)cc3O2)CC1)c1ccccc1Cl [Example 41, (S)-(-)-2-Chloro-N-{[1-(7-chloro-1,4-benzodioxan-2-ylmethyl)-4-piperidyl]methyl}benzenesutphonamide]	–	–	93	106
O=S(=O)(c1ccccn1)N1CCC(CNC[C@H]2COc3ccc(Cl)cc3O2)CC1 [Example 2, (S)-(-)-4-[N-(7-chloro-1,4-benzodioxan-2-ylmethyl)aminomethyl]-1-(2-pyridinesulphonyl)piperidine 0.8 hydrate]	11.4	27.9	–	–
Cc1ccc(S(=O)(=O)NCC2CCN(C[C@H]3COc4ccc(Cl)cc4O3)CC2)cc1 [Example 33, (S)-N-{[1-(7-Chloro-1,4-benzodioxan-2-ylmethyl)-4-piperidyl]methyl}-4-methylbenzenesulphonamide]	–	301	91	–
O=S(=O)(NCC1CCN(C[C@H]2COc3ccc(Cl)cc3O2)CC1)c1cc2nnoc2c2ccccc12 [Example 20, (S)-N-{[1-(7-Chloro-1,4-benzodioxan-2-ylmethyl)-4-piperidyl]methyl}naphth [2,1-d][1,2,3]oxadiazole-5-sulphonamide]	–	235	75	–
O=[N+]([O-])c1ccc(S(=O)(=O)NCC2CCN(C[C@H]3COc4ccc(Cl)cc4O3)CC2)cc1 [Example 4, (S)-(-)-N-{[1-(7-chloro-1,4-benzodioxan-2-ylmethyl)-4-piperidyl]-methyl}-4-nitrobenzenesulphonamide]	15	105	–	–

Reference: US6136825A, “Sulfonamide compounds having 5-HT receptor activity” (Knoll Aktiengesellschaft, priority 1996, dated 2000)
